Data: patent US20180217163A1, “TREATMENT OF NEURODEGENERATIVE CONDITIONS USING PKC ACTIVATORS AFTER DETERMINING THE PRESENCE OF THE APOE4 ALLELE” (priority 2015, published 2018)
Where two headings read alike, the source gives them in different places.

Assays:
[1] = system: PKC; conditions: cited from earlier work
[2] = system: HDAC6; test: HDAC6 nuclear translocation in SH-SY5Y cells (immunoblot); assay type: cell-based, human
Description: (§1) Human SH-SY5Y neuroblastoma cells (Sigma-Aldrich), were cultured in 45% F12K, 45% MEM, and 10% FBS. Cells were treated with cholesterol, ASPD, ApoE3/ApoE4+cholesterol, or PKC activators for 24 h. Cholesterol was dissolved in ethanol. ApoE (20 nM) and cholesterol (100 μM) were mixed separately into the cultures. To block the ApoE receptors, cells were treated with RAP for 30 min before adding ApoE. Human primary neurons (ScienCell Research Laboratories) were plated on poly-L-lysine-coated plates and were maintained in neuronal medium (ScienCell Research Laboratories) supplemented with the neuronal growth supplements (ScienCell Research Laboratories). Half of the culture medium was changed every 3 d and fresh activators were added with every medium change to maintain viable neurons.
A PBS solution of 5×10^6 Human SH-SY5Y neuroblastoma cells was centrifuged and the resultant cell pellet was resuspended and washed twice with cold PBS. After the second wash, the cell pellet was resuspended in 500 μl of hypotonic buffer (20 mM Tris-Cl, pH 7.4, 10 mM NaCl, 3 mM MgCl2, and 1 mM PMSF) and incubated on ice for 15 min. Next, 25 μl of 10% NP-40 was added to the cell suspension and the sample was vortexed for 10 s. The homogenate was centrifuged for 10 min at 1000×g at 4° C. to obtain the cytoplasmic fraction (supernatant) and nuclear fraction (pellet). After removing the supernetant, the nuclear pellet was resuspended in 50 μl of complete cell extraction buffer (100 mM Tris-Cl, pH 7.4, 2 mM Na3VO4, 100 mM NaCl, 1% Triton X-100, 1 mM EDTA, 10% glycerol, 1 mM EGTA, 0.1% SDS, 1 mM NaF, 0.5% deoxycholate, 20 mM Na4P2O7, and 1 mM PMSF) and incubated on ice for 30 min with vortexing at 10 min intervals. The nuclear lysate was centrifuged at 14,000×g for 30 min at 4° C. to obtain the nuclear fraction (supernatant). Protein concentration was measured using the Coomassie Plus (Bradford) Protein Assay kit (Pierce).
Protein in samples of the supernetant and nuclear fractions was separated by SDSPAGE in a 4-20% gradient Tris-Glycine gel (Invitrogen). The protein was then transferred to nitrocellulose membrane. The membrane was blocked with BSA at room temperature for 15 min and incubated with primary antibody overnight at 4° C. After incubation, the membrane was washed thrice (3×) with TBS-T (Tris-buffered saline-Tween 20) and further incubated with alkaline-phosphatase-conjugated secondary antibody (Jackson Immunoresearch Laboratories) at 1:10,000 dilution for 45 min. Following incubation, the membrane was washed 3× with TBS-T and developed using the 1-step NBT-BCIP substrate (Pierce). […] The immunoblot proteins were detected using ImageQuant RT-ECL (GE Life Sciences) and densitometric quantification was performed using IMAL software, which was developed at our institution. […]

[3] = system: PKCε mRNA; test: PKCε mRNA expression in SH-SY5Y cells (qRT-PCR); assay type: cell-based, human; conditions: ASPD-treated cells
Description: as §1
qRT-PCR was performed and the results analyzed as described previously (Schmittgen et al., Analyzing real-time PCR data by the comparative C(T) method, Nat. Protoc., 3:1101-1108, 2008; Sen et al., 2012 supra). Total RNA (500 ng) was reverse transcribed using oligo(dT) and Superscript III (Invitrogen) at 50° C. for 1 h. The cDNA products were analyzed using a LightCycler 480 II (Roche) PCR machine and LightCycler 480 SYBR Green 1 master mix following the manufacturer's protocol. […]

[4] = system: BDNF mRNA; test: BDNF mRNA expression in SH-SY5Y cells (qRT-PCR); assay type: cell-based, human; conditions: ASPD-treated cells
Description: as §1
qRT-PCR was performed and the results analyzed as described previously (Schmittgen et al., Analyzing real-time PCR data by the comparative C(T) method, Nat. Protoc., 3:1101-1108, 2008; Sen et al., 2012 supra). Total RNA (500 ng) was reverse transcribed using oligo(dT) and Superscript III (Invitrogen) at 50° C. for 1 h. The cDNA products were analyzed using a LightCycler 480 II (Roche) PCR machine and LightCycler 480 SYBR Green 1 master mix following the manufacturer's protocol. Primers for PKCε (forward primer: […], reverse primer: […], PKCα (forward-[…], reverse: […]), PKC (forward: […], reverse: CCGATG […]), GAPDH (forward: […], reverse: […]), and BDNF (forward: […], reverse: […]; Origene).

[5] = in vivo; cited from earlier work
[6] = system: HDAC4; test: HDAC4 nuclear translocation in SH-SY5Y cells (immunoblot); assay type: cell-based, human
Description: as §1
A PBS solution of 5×10^6 Human SH-SY5Y neuroblastoma cells was centrifuged and the resultant cell pellet was resuspended and washed twice with cold PBS. After the second wash, the cell pellet was resuspended in 500 μl of hypotonic buffer (20 mM Tris-Cl, pH 7.4, 10 mM NaCl, 3 mM MgCl2, and 1 mM PMSF) and incubated on ice for 15 min. Next, 25 μl of 10% NP-40 was added to the cell suspension and the sample was vortexed for 10 s. The homogenate was centrifuged for 10 min at 1000×g at 4° C. to obtain the cytoplasmic fraction (supernatant) and nuclear fraction (pellet). […] Protein concentration was measured using the Coomassie Plus (Bradford) Protein Assay kit (Pierce).
Protein in samples of the supernetant and nuclear fractions was separated by SDSPAGE in a 4-20% gradient Tris-Glycine gel (Invitrogen). […] The immunoblot proteins were detected using ImageQuant RT-ECL (GE Life Sciences) and densitometric quantification was performed using IMAL software, which was developed at our institution. […]

[7] = system: PKC; conditions: cited from earlier work; remark: listed apart in the source
[8] = system: squamous cell carcinoma and melanoma; conditions: used topically; cited from earlier work
[9] = molecular target: protein kinase C; conditions: (-)-enantiomer; cited from earlier work
[10] = system: NCI 60 cell line screen; conditions: cited from earlier work
[11] = molecular target: T1, PKCε (Mus musculus, UniProt P16054); test: PKCε activation in brain of mice (FIG. 11); assay type: in vivo; conditions: single intravenous injection
T1 construct: from tissue; host or cells: mouse brain
T1 sequence (P16054 1-737): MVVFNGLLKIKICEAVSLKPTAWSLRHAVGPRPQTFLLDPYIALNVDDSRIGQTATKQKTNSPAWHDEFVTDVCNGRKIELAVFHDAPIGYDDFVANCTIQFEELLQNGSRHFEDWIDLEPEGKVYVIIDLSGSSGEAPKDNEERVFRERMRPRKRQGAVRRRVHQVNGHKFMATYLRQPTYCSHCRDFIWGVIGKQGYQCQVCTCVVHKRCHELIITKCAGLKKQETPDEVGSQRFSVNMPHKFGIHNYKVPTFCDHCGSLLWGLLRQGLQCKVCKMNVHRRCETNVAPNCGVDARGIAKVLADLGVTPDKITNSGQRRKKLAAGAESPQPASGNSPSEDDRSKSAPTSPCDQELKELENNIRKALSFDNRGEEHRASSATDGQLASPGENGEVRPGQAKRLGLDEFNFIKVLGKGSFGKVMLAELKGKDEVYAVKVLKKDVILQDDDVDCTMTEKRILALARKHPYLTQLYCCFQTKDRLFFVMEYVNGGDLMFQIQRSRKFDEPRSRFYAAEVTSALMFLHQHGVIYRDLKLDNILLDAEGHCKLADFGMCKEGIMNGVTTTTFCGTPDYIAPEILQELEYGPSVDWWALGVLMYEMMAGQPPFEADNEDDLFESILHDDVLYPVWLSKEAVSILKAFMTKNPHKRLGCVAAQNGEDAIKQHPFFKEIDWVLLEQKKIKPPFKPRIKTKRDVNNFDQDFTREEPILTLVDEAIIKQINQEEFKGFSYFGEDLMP

[12] = molecular target: T2, PKCε (Homo sapiens, UniProt Q02156); test: Phase IIa clinical trial: PKCε levels after bryostatin; assay type: in vivo
T2 construct: from tissue; host or cells: blood of trial subjects
T2 sequence (Q02156 1-737): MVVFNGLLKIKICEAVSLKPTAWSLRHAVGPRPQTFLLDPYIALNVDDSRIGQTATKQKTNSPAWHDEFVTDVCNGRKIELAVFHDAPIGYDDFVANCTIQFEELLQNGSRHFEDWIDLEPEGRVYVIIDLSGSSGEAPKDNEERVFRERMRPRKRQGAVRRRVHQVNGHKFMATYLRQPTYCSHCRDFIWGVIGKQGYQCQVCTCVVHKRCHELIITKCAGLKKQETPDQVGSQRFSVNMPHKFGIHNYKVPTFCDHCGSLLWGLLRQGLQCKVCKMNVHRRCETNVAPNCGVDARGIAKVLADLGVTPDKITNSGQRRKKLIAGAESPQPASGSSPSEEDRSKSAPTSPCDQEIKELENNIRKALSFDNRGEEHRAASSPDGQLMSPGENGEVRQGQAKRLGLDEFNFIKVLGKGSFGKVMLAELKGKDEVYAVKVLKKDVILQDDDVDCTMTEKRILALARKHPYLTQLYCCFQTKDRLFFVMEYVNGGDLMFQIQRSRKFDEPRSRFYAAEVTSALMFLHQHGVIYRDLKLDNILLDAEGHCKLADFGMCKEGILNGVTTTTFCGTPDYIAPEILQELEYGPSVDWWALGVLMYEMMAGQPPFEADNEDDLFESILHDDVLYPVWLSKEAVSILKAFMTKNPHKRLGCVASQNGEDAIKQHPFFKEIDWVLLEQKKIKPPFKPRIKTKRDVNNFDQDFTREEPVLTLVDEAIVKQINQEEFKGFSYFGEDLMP

[13] = cited from earlier work
[14] = molecular target: PKC; conditions: [3H] phorbol dibutyrate competition; cited from earlier work
[15] = ApoE4+ASPD induced translocation, 24 h
[16] = A-ring bryologs, read-out: affinity for PKC
[17] = RAP 100 nM, 30 min before ApoE+Chol 24 h

CCCCCCCC(=O)O[C@H]1/C(=C/C(=O)OC)C[C@H]2C[C@H](CO)OC(=O)C[C@H](O)C[C@@H]3CCC[C@H](C[C@@H]4CCO[C@H](/C=C/C(C)(C)[C@]1(O)O2)O4)O3 [Analog 1]
affinity for PKC [1]: highest affinity for PKC
Ki ([1]; read-out: PKC Affin): 0.25 nM

ASPD+Chol: amyloid-β amylospheroids prepared from Aβ1-42, plus cholesterol
HDAC6 in the nucleus, percentage of total protein ([2]; 24 h, immunoblot): 21.7±2.8%
PKCε mRNA levels [3]: 0.58±0.06 fold
BDNF mRNA levels [4]: 0.62±0.05 fold

CCC/C=C/C=C/C(=O)O[C@H]1/C(=C/C(=O)OC)C[C@H]2C[C@H]([C@@H](C)O)OC(=O)C[C@H](O)C[C@@H]3C[C@H](OC(C)=O)C(C)(C)C(O)(C[C@@H]4C/C(=C/C(=O)OC)C[C@H](/C=C/C(C)(C)[C@]1(O)O2)O4)O3 [Bryostatin-1]
reduction in nuclear HDAC6 [2, 15]: 46±9.2%
dose exhibiting no toxicity [5]: 20 μg/week
dose that may be associated with muscle pain [5]: more than 35 μg/week
reduction of nuclear import of HDAC4 [6, 15]: 40±8.4%

CCC1CC1CC1CC1CC1CC1CC1CC1CC1CC1CC1CC1CCC(=O)OC (centres unmarked) [DHA-CP6, cyclopropanated docosahexaenoic acid methyl ester]
effective concentration [7]: 10 nM

CCCCCCCC(=O)OC1C(=CC(=O)OC)CC2CC(CO)OC(=O)CC(O)CCOC(CCCc3ccc(Br)cc3)CC3CCOC(C=CC(C)(C)C1(O)O2)O3 (centres unmarked) [bryolog 5]
Ki [1, 16]: 1.9 nM

C/C=C(/C)C(=O)O[C@H]1C(C)=C[C@]23C(=O)[C@@H](C=C(CO)[C@@H](O)[C@]12O)[C@H]1[C@@H](C[C@H]3C)C1(C)C [Ingenol-3-angelate]
antitumor activity [8]: exhibits antitumor activity

CCCCCCCCc1ccc2c3c(c[nH]c13)C[C@@H](CO)NC(=O)[C@H](C(C)C)N2C [Octylindolactam V]
EC50 [9]: 29 nM

CC1=CC[C@H](C)C(C)(C)[C@@H]1/C=C/C(C)=C/CC[C@@]1(CO)[C@H](CCCO)/C(=C(/C)C=O)CC[C@]1(C)O [Iripallidal]
GI50 (concentration required to inhibit growth by 50%) [10]: from micromolar to nanomolar range

CCC/C=C/C=C/C(=O)O[C@H]1/C(=C/C(=O)OC)C[C@H]2C[C@H]([C@@H](C)O)OC(=O)C[C@H](O)C[C@@H]3C[C@H](OC(C)=O)C(C)(C)[C@](O)(C[C@@H]4C/C(=C/C(=O)OC)C[C@H](/C=C/C(C)(C)[C@]1(O)O2)O4)O3 [Bryostatin-1]
PKCε expression and levels in the brain [11]: activate PKCε expression and increase PKCε levels in the brain of mice
synthesis of PKCε [12]: increases the synthesis of PKCε
time of highest PKCε levels post administration [12]: 1 h
t1/2 in the blood stream ([13]; blood): 1 h
crossing of the blood-brain barrier ([13]; in vivo): crosses the blood-brain barrier
part of initial dose in the blood at 100 hrs ([13]; intravenous injection, 100 hrs): 1%
time detectable in the blood after a single injection ([13]; single injection): 14 days

CCCCCCCC(=O)OC1C(=CC(=O)OC)CC2CC(CO)OC(=O)CC(O)CCOC(C(C)(C)C)CC3CCOC(C=CC(C)(C)C1(O)O2)O3 (centres unmarked) [bryolog 3]
Ki [1, 16]: 6.5 nM

CC1=C[C@]23C(=O)[C@@H](C=C(COC(=O)c4ccccc4)[C@@H](O)[C@]2(O)[C@H]1OC(=O)c1ccccc1)[C@H]1[C@@H](C[C@H]3C)C1(C)C [Ingenol 3,20-dibenzoate]
Ki [14]: 240 nM

CCCCCCCC(=O)OC1C(=CC(=O)OC)CC2CC(CO)OC(=O)CC(O)CCOC(c3ccccc3)CC3CCOC(C=CC(C)(C)C1(O)O2)O3 (centres unmarked) [bryolog 4]
Ki [1, 16]: 2.3 nM

B1: RAP: recombinant human receptor-associated protein, ApoE receptor binding protein, from Molecular Innovations (protein, UniProt P30533 35-357, looked up)
Alpha-2-macroglobulin …: YSREKNQPKPSPKRESGEEFRMEKLNQLWEKAQRLHLPPVRLAELHADLKIQERDELAWKKLKLDGLDEDGEKEARLIRNLNVILAKYGLDGKKDARQVTSNSLSGTQEDGLDDPRLEKLWHKAKTSGKFSGEELDKLWREFLHHKEKVHEYNVLLETLSRTEEIHENVISPSDLSDIKGSVLHSRHTELKEKLRSINQGLDRLRRVSHQGYSTEAEFEEPRVIDLWDLAQSANLTDKELEAFREELKHFEAKIEKHNHYQKQLEIAHEKLRHAESVGDGERVSRSREKHALLEGRTKELGYTVKKHLQDLSGRISRARHNEL
effect of RAP pretreatment on ApoE-mediated nuclear translocation of HDAC6 [2, 17]: abolished the effects of ApoE3+Chol and ApoE4+Chol
effect of RAP pretreatment on ApoE-mediated nuclear translocation of HDAC4 [6, 17]: abolished the effects of ApoE3+Chol and ApoE4+Chol
